Data as given in patent US8318787B2, “Prodrugs of (3,5-bis(4-fluorophenyl)tetrahydro-1H-oxazolo[3,4-C]oxazol-7A-yl)methanol and derivatives thereof” (University of Kansas, priority 2005, dated 2012).
pEC50: −log10 of the molar value.

Tests used:
primary cortical neurons = experiment: Neuroprotection of primary cortical neurons exposed to Aβ peptides (Live/Dead assay); type: cell-based; details: Rattus norvegicus, Primary cortical neuron, Aβ25-35, 48 hours, read-out: EC50 (concentration that lead to a 50% increase in neuronal survival in the presence of the Aβ peptide)
Procedure: This example illustrates the neuroprotective effects of TH-237A in neuronal cells after exposure to Aβ peptides. To prepare the primary neurons, dissociated cortical cell cultures were established from embryonic day 18 rat fetuses recovered from pregnant Sprague Dawley rats (Harlan Sprague Dawley, Inc., Indianapolis, Ind.) as described previously (Michaelis et al., 1994). Pups were delivered by cesarean section while the dam was anesthetized with pentobarbital (140 mg/kg, i.p.), and the brains were recovered according to National Institutes of Health-approved protocols. After the final precipitation step, neurons were suspended in fresh DMEM/F12 (Sigma Chemical Co. St. Louis, Mo.) with 10% fetal bovine serum (Atlanta Biologicals, Atlanta, Ga.) and plated at a density of 2.5×10^5 cells in 35 mm glass bottom microwell dishes (Mat-Tek Co., Ashland, Mass.), coated with poly-D-lysine. Serum-containing medium was removed after 24 hours, and the cells were maintained in serum-free DMEM/F12 containing the N2 supplements. […]
After five days in culture, the primary neurons were exposed to either Aβ25-35 or Aβ1-42 in the presence or absence of concentrations of TH-237A ranging from 0.5 to 60 nM. […] Each batch of Aβ peptide was analyzed for β-sheet formation by circular dichroism, but no effort was made to separate oligomers from fibrils. […]
The effects of the Aβ peptides and TH-237A were primarily determined by monitoring neuronal cell survival using the Live/Dead assay as previously described (Michaelis et al., 1998; Michaelis et al., 2005). […] The number of viable (green) and dead (red) neurons was determined by counting the cells, and this was done in 6-12 microscopic fields per culture dish in duplicate dishes for each treatment. […] Thus, approximately 1500 neurons were scored under each treatment condition. The fraction of viable cells in each field was calculated based on the total number of cells counted in each field. Raw data from each experiment were combined and the significance of differences between cultures exposed to various treatments was determined using Student's t test. […]

[1] = Oral absorption of parent compound and prodrug (plasma levels); type: in vivo
Procedure: The prodrug compound (3,5-bis(4-fluorophenyl)tetrahydro-1H-oxazolo[3,4-C]oxazol-7a-yl)methanol phosphate was studied for oral absorption. A formulation of (3,5-bis(4-fluorophenyl)tetrahydro-1H-oxazolo[3,4-C]oxazol-7a-yl)methanol was prepared into a suspension and into a composition with Captisol, and the prodrug thereof was formulated into an aqueous solution. Oral absorption behavior of the parent compound is depicted in FIG. 8. As previously mentioned, the systemic exposure of the parent compound following oral administration of the parent compound as a suspension is limited compared to a solution of the parent compound administered in Captisol. The systemic exposure of the prodrug compound following oral administration of an aqueous solution of the prodrug compound is depicted in FIG. 9.

[2] = system: P-glycoprotein efflux transporter; experiment: Rhodamine 123 accumulation assay in bovine brain microvessel endothelial cells; type: in vitro ADME; details: BBMECs
Procedure: First, a rhodamine 123 assay was used for to assess uptake of the test compound in brain endothelial cells. Bovine brain microvessel endothelial cells (“BBMECs”) were isolated and grown in primary culture on 12 well cluster dishes at a density of 50,000 cells/cm^2 essentially as described previously (Rice et al., 2005). The culture medium was changed every other day after seeding until a confluent monolayer was formed as determined by light microscopy. Experiments were performed in phosphate buffered saline supplemented with calcium and glucose (PBSA), pH 7.4. Briefly, the growth medium was first aspirated off, and the cells were rinsed three times with pre-warmed (37° C.) PBSA. […] Cell lysates were assayed using a microplate fluorescence reader (Bio-Tek Instruments, Winooski, Vt.) at excitation/emission wavelengths of 485 nm/520 nm, then quantified against standard curves of rhodamine 123 in lysing solution. The fluorescence of the cell lysates was corrected for autofluorescence of untreated cells. The protein content of each monolayer was then determined using the BCA protein assay reagent kit. Results were expressed as total nanomoles of rhodamine 123 accumulation per mg cellular protein for agents tested at 10 μM.

[3] = In vivo pharmacokinetics in plasma and brain; parameters: species or system Male Balb/C mice; details: mice, 10 mg/Kg in Captisol, i.v. or s.c.
Procedure: In this example, the pharmacokinetics of TH-237A were evaluated in vivo. Male Balb/C mice were dosed with TH-237A (10 mg/Kg in Captisol®) via either an i.v. injection into the tail vein or via subcutaneous (sc) injection. At multiple time points ranging from 0 to 240 minutes, 12 mice (n=6, i.v.; n=6, s.c.) were anesthetized with isoflurane, and blood was collected via cardiac puncture. Mice were perfused with 30 mL of saline to wash remaining blood from the vessels, and the brain tissue was harvested. The levels of TH-237A in plasma and brain were quantified using mass spectrometric methods.
Sample preparations. Brain homogenate was prepared in a 1:4 ratio with deionized water. A sonic dismembrator was pulsed at 30% power until the sample was liquified. Aliquots of mouse plasma (0.05 mL) or mouse brain homogenates (0.25 g) were spiked with 50 ng of internal standard (deuterated TH-237A) and vortexed for 10 seconds. The TH-237A and internal standard were extracted using 1.3 mL of methyl t-butyl ether. Samples were vortexed for 5 minutes and centrifuged. The supernatant was transferred to 2 mL centrifuge tubes and evaporated to dryness. The sample was reconstituted in 0.2 mL of sample solvent, vortexed and centrifuged before a 10 uL aliquot was injected on to the LC/MS system for analysis.
Analysis of TH-237A. The levels of the drug in the samples were determined by means of HPLC/MS. […]

in vitro = details: bovine, pH 7.4
Procedure: The BBMECs were grown on 0.4 μm polycarbonate membranes. […] Transport studies were performed in pH 7.4 standard buffer solutions, consisting of either Hank's balanced salt solution (HBSS) or phosphate buffered saline (PBS) supplemented with 0.63 mM CaCl2, 0.74 mM MgSO4, 5.3 mM glucose and 0.1 mM ascorbic acid (PBSA). Briefly, all studies were performed in 3 ml of PBSA in each donor and receiver chamber of the side-by-side diffusion chambers and stirred at 600 rpm at 37° C. The cells were allowed to equilibrate in PBSA for 30 minutes prior to each experiment and oriented such that apical or blood side of the cells face the donor chamber and the basolateral or brain side of the cells adhere to the polycarbonate membranes and face the receiver chamber of the diffusion apparatus. At each time point, a 100 μl sample was taken from the receiver compartment and immediately replaced with an equal volume of PBSA. The transport studies were performed in the presence or absence of CsA (5-10 μM). Monolayers were checked for trypan blue exclusion after experiments as well to assess general cell viability. The permeability of all monolayers used in these experiments was monitored for [^14C] sucrose leakage as a measure of potential TH-237A-induced loss of integrity. The radioactivity was quantified using liquid scintillation spectrometry.

melting point [°C] | SMILES | pEC50 (primary cortical neurons) | also measured
– | OCC12CO[C@H](c3ccc(F)cc3)N1[C@@H](c1ccc(F)cc1)OC2 (racemic) [TH-236B, (3R,5R) and (3S,5S) (3,5-bis(4-fluorophenyl)tetrahydro-1H-oxazolo[3,4-c]oxazol-7a-yl)methanol] | ~7.40 | –
120 | OCC12CO[C@H](c3ccc(C(F)(F)F)cc3)N1[C@@H](c1ccc(C(F)(F)F)cc1)OC2 (racemic) [TH-242B, (3R,5R) and (3S,5S) (3,5-bis(4-trifluoromethylphenyl)tetrahydro-1H-oxazolo[3,4-c]oxazol-7a-yl)methanol] | – | –
89 | OCC1(CO)COC(c2ccc(F)cc2)N1 (racemic) [TH-OPEN, (R/S)-(2-(4-fluorophenyl)oxazolidine-4,4-diyl)dimethanol] | ~7.30 | –
98 | OCC1(CO)COC(c2ccc(C(F)(F)F)cc2)N1 (racemic) [TH-OPENTFM, (R/S)-(2-(4-(trifluoromethyl)phenyl)oxazolidine-4,4-diyl)dimethanol] | – | –
– | O=P([O-])([O-])OCC12COC(c3ccc(F)cc3)N1C(c1ccc(F)cc1)OC2.[Na+].[Na+] (stereo not shown) [(3,5-bis(4-fluorophenyl)tetrahydro-1H-oxazolo[3,4-C]oxazol-7a-yl)methanol phosphate] | – | systemic exposure of drug from aqueous prodrug solution relative to Captisol solution of the parent compound ([1]; aqueous solution of prodrug): equivalent or better
– | OCC12COC(c3ccc(F)cc3)N1C(c1ccc(F)cc1)OC2 (stereo not shown) [(3,5-bis(4-fluorophenyl)tetrahydro-1H-oxazolo[3,4-C]oxazol-7a-yl)methanol] | – | systemic exposure after oral administration as a suspension compared to solution in Captisol ([1]; suspension): limited
– | OC[C@]12CO[C@H](c3ccc(F)cc3)N1[C@H](c1ccc(F)cc1)OC2 [TH-237A, (3R,5S,7as)-(3,5-bis(4-fluorophenyl)tetrahydro-1H-oxazolo[3,4-c]oxazol-7a-yl)methanol] | 8.30 | effect on rhodamine 123 accumulation / P-glycoprotein substrate [2]: not a substrate for the P-glycoprotein efflux transporter; plasma half-life [3]: on the order of hours; amount of drug entering the plasma ([3]; regardless of route): a very significant amount of the drug enters the plasma; Papp (in vitro): 270 ×10⁻⁶ cm/s
102 | OC[C@]12CO[C@H](c3ccc(C(F)(F)F)cc3)N1[C@H](c1ccc(C(F)(F)F)cc1)OC2 [TH-242A] | – | –
